In patent publication US11358971B2, “Prodrugs of modulators of the NMDA receptor” (H. Lundbeck A/S, priority 2019, dated 2022):

system: not listed separately; assay: In vivo exposure (plasma and brain) after intravenous bolus injection; settings: compound quantified 1c; dose 2 mg/kg intravenous bolus; male Sprague Dawley rats
Experimental: Brain disposition of test compound was evaluated in male Sprague Dawley rats (standard body weight range). Briefly, discrete (nominal dose: 2 mg/kg, 2 ml/kg) or cassetted (nominal dose: 1 mg/kg/compound, 2 ml/kg) test compounds were administered by intravenous bolus injection (formulated in 10% hydroxypropyl-β-cyclodextrin or 10-20% Captisol, pH=3).
Serial blood samples were collected from a lateral tail vein at designated time points (n=3 per time point) then rats were put under deep isofluorane induced anaesthesia prior to removal of brains (n=3 per time point). Blood samples were stabilized against further metabolism ex vivo by addition of an esterase inhibitor (100 μM diisopropyl fluorophosphate). […]
Seven calibration standards and three QC samples were prepared in plasma and brain homogenate, respectively, in the concentration range 10-10000 ng/mL. […] Study samples with expected concentration above upper limit of quantification were diluted with blank matrix. […]
Samples were analyzed using an AB Sciex API4000 triple quadrupole (TQ) mass spectrometer operated in positive and negative electrospray ionization and MS/MS mode (multiple reaction monitoring, MRM). […] Quantification was performed by linear regression, 1/x2 weighting.
Concentrations of prodrug and drug in plasma and brain were quantified against matrix matched calibration standards.

| Structure (SMILES) | Total Brain concentration (ng/mL) 30 min post dose |
| --- | --- |
| Cc1ccnc2cc(C(=O)NC[C@@H](N)C(=O)OC(C)C)sc12 [Compound 2f, Isopropyl (R)-2-amino-3-(7-methylthieno[3,2-b]pyridine-2-carboxamido)propanoate] | BLOQ |

same assay, conditions: compound quantified 1h; dose 2 mg/kg intravenous bolus; male Sprague Dawley rats

| Structure (SMILES) | Total Brain concentration (ng/mL) 30 min post dose |
| --- | --- |
| COC(=O)[C@H](N)CNC(=O)c1cc2nccc(Br)c2s1 [Compound 2u, Methyl (R)-2-amino-3-(7-bromothieno[3,2-b]pyridine-2-carboxamido)propanoate] | BLOQ |

system: not listed separately; assay: MDR1-MDCKII permeability assay Papp(AB); type: in vitro ADME; settings: dog, MDCK-MDR1, parent compounds, A to B, 60-minute incubation at 37° C., pH 7.4
Experimental: (§1) MDR1-MDCKII Permeability Assay Papp(AB)
(§2) MDR1-MDCKII cells (obtained from Piet Borst at the Netherlands Cancer Institute) were seeded onto […] (PET) in 96-well BD insert systems at 2.5×10^5 cells/mL until to 4-7 days for confluent cell monolayer formation.
(§3) Test compounds were diluted with the transport buffer (HBSS with 10 mM HEPES, added 1% BSA, pH 7.4) from DMSO stock solution to a concentration of 0.5 μM (DMSO: 0.4%) and applied to the apical or basolateral side of the cell monolayer. Permeation of the test compounds from A to B direction or B to A direction was determined in triplicate over a 60-minute incubation at 37° C. and 5% CO2 with a relative humidity of 95%. In addition, the efflux ratio of each compound was also determined. Test and reference compounds were quantified by LC/MS/MS analysis based on the peak area ratio of analyte/IS.
(§4) Reference compounds: Fenoterol (conc: 2 μM) was used as low permeability marker and Propranolol (conc: 2 μM) was used as high permeability marker in A to B Permeability, furthermore was bi-directional permeability of a P-glycoprotein substrate (digoxin) included.
(§5) The apparent permeability coefficient Papp (cm/s) was calculated using the equation: Papp=(dCr/dt)×Vr/(A×C0) (1) Where dCr/dt is the cumulative concentration of compound in the receiver chamber as a function of time (μM/s); Vr is the solution volume in the receiver chamber (0.05 mL on the apical side; 0.25 mL on the basolateral side); A is the surface area for the transport, i.e. 0.0804 cm^2 for the area of the monolayer; C0 is the initial concentration in the donor chamber (μM).
(§6) The efflux was calculated using the equation: Efflux ratio=Papp(BA)/Papp(AB) (2)
(§7) The mass balance (Recovery) was calculated. The mass balance is defined as: the sum of the compound recovered from the acceptor chamber and the compound remaining in the donor chamber at the end of the experiment, divided by the initial donor amount. The mass balance should be as high as possible. Criterion: Recovery <50% is insufficient.
(§8) To evaluate the integrity of the cell monolayer, Lucifer Yellow permeability was measured in one direction (A to B). The percentage of Lucifer Yellow was calculated in control wells as an estimation of the overall cell membrane integrity. The wells are considered fully acceptable if % Lucifer Yellow is less than 2%.
(§9) The experiments for the prodrugs were the same as for the parent compounds exemplified in Table 3a.

| Structure (SMILES) | Papp A→B at 60 min, 0.5 µM [×10⁻⁶ cm/s] |
| --- | --- |
| Cc1cnc2cc(C(=O)NC[C@@H](N)C(=O)O)sc2c1C [Compound 1l, (R)-2-amino-3-(6,7-dimethylthieno[3,2-b]pyridine-2-carboxamido)propanoic acid] | 0.47 |
| N[C@H](CNC(=O)c1cc2nccc(C(F)(F)F)c2s1)C(=O)O [Compound 1f, (R)-2-amino-3-(7-(trifluoromethyl)thieno[3,2-b]pyridine-2-carboxamido) propanoic acid] | 1.03 |

same assay, conditions: dog, MDCK-MDR1, prodrug compounds, A to B, 60-minute incubation at 37° C., pH 7.4

| Structure (SMILES) | Papp A→B at 60 min, 0.5 µM [×10⁻⁶ cm/s] |
| --- | --- |
| CCCCOC(=O)[C@H](N)CNC(=O)c1cc2nccc(C)c2s1 [Compound 2h, Butyl (R)-2-amino-3-(7-methylthieno[3,2-b]pyridine-2-carboxamido)propanoate] | 6.11 |
| Cc1ccnc2cc(C(=O)NC[C@@H](N)C(=O)OCc3ccccc3)sc12 [Compound 2m, Benzyl (R)-2-amino-3-(7-methylthieno[3,2-b]pyridine-2-carboxamido)propanoate] | 8.68 |
| COC(=O)[C@H](N)CNC(=O)c1cc2nccc(OC)c2s1 [Compound 2r, Methyl (R)-2-amino-3-(7-methoxythieno[3,2-b]pyridine-2-carboxamido)propanoate] | 5.54 |
| Cc1ccnc2cc(C(=O)NC[C@@H](N)C(=O)OCC(C)C)sc12 [Compound 2i, Isobutyl (R)-2-amino-3-(7-methylthieno[3,2-b]pyridine-2-carboxamido)propanoate] | 8.19 |
| CCc1ccccc1-c1ccnc2cc(C(=O)NC[C@@H](N)C(=O)OC)sc12 [Compound 2q, Methyl (R)-2-amino-3-(7-(2-ethylphenyl)thieno[3,2-b]pyridine-2-carboxamido)propanoate] | 1.97 |
| COC(=O)[C@H](N)CNC(=O)c1cc2nccc(C3CC3)c2s1 [Compound 2b, Methyl (R)-2-amino-3-(7-cyclopropylthieno[3,2-b]pyridine-2-carboxamido) propanoate] | 9.25 |
| CCOC(=O)[C@H](N)CNC(=O)c1cc2nccc(C)c2s1 [Compound 2d, Ethyl (R)-2-amino-3-(7-methylthieno[3,2-b]pyridine-2-carboxamido)propanoate] | 15.2 |
| COC(=O)[C@H](N)CNC(=O)c1cc2ncc(F)c(C)c2s1 [Compound 2x, Methyl (R)-2-amino-3-(6-fluoro-7-methyl-thieno[3,2-b]pyridine-2-carboxamido)propanoate] | 15.5 |
| COC(=O)[C@H](N)CNC(=O)c1cc2nccc(CO)c2s1 [Compound 2v, Methyl (R)-2-amino-3-(7-(hydroxymethyl)thieno[3,2-b]pyridine-2-carboxamido) propanoate] | 1.16 |
| COC(=O)[C@H](N)CNC(=O)c1cc2ncc(C)c(C)c2s1 [Compound 2y, Methyl (R)-2-amino-3-(6,7-dimethylthieno[3,2-b]pyridine-2-carboxamido)propanoate] | 7.08 |
| COC(=O)[C@H](N)CNC(=O)c1cc2nccc(CF)c2s1 [Compound 2w, Methyl (R)-2-amino-3-(7-(fluoromethyl)thieno[3,2-b]pyridine-2-carboxamido)propanoate] | 4.19 |
| COC(=O)[C@H](N)CNC(=O)c1cc2nccc(C(F)F)c2s1 [Compound 2a, Methyl (R)-2-amino-3-(7-(difluoromethyl)thieno[3,2-b]pyridine-2-carboxamido)propanoate] | 8.36 |
| Cc1ccnc2cc(C(=O)NC[C@@H](N)C(=O)OC(C)C)sc12 [Compound 2f, Isopropyl (R)-2-amino-3-(7-methylthieno[3,2-b]pyridine-2-carboxamido)propanoate] | 18.4 |
| Cc1ccnc2cc(C(=O)NC[C@@H](N)C(=O)OCC3CC3)sc12 [Compound 2j, Cyclopropylmethyl (R)-2-amino-3-(7-methylthieno[3,2-b]pyridine-2-carboxamido)propanoate] | 11.9 |
| COC(=O)[C@H](N)CNC(=O)c1cc2nccc(C(F)(F)F)c2s1 [Compound 2s, Methyl (R)-2-amino-3-(7-(trifluoromethyl)thieno[3,2-b]pyridine-2-carboxamido)propanoate] | 12.3 |
| COC(=O)[C@H](N)CNC(=O)c1cc2nccc(OC(C)C)c2s1 [Compound 2t, Methyl (R)-2-amino-3-(7-isopropoxythieno[3,2-b]pyridine-2-carboxamido)propanoate] | 4.81 |
| Cc1ccnc2cc(C(=O)NC[C@@H](N)C(=O)OCC(=O)N3CCCC3)sc12 [Compound 2p, 2-Oxo-2-(pyrrolidin-1-yl)ethyl (R)-2-amino-3-(7-methylthieno[3,2-b]pyridine-2-carboxamido)propanoate] | 0.81 |
| Cc1ccnc2cc(C(=O)NC[C@@H](N)C(=O)OC3CC3)sc12 [Compound 2g, Cyclopropyl (R)-2-amino-3-(7-methylthieno[3,2-b]pyridine-2-carboxamido)propanoate] | 7.11 |
| Cc1ccnc2cc(C(=O)NC[C@@H](N)C(=O)OCCC(C)C)sc12 [Compound 2l, Isopentyl (R)-2-amino-3-(7-methylthieno[3,2-b]pyridine-2-carboxamido)propanoate] | 6.5 |
| CCCOC(=O)[C@H](N)CNC(=O)c1cc2nccc(C)c2s1 [Compound 2e, Propyl (R)-2-amino-3-(7-methylthieno[3,2-b]pyridine-2-carboxamido)propanoate] | 10.3 |
| Cc1ccnc2cc(C(=O)NC[C@@H](N)C(=O)OC3CCCCC3)sc12 [Compound 2n, Cyclohexyl (R)-2-amino-3-(7-methylthieno[3,2-b]pyridine-2-carboxamido)propanoate] | 5.86 |
| COCCOC(=O)[C@H](N)CNC(=O)c1cc2nccc(C)c2s1 [Compound 2k, 2-Methoxyethyl (R)-2-amino-3-(7-methylthieno[3,2-b]pyridine-2-carboxamido)propanoate] | 4.77 |

system: MDR1-MDCKII cells; assay: MDR1-MDCKII permeability assay Papp(AB); type: in vitro ADME; settings: parent compounds; 0.5 μM; A to B; 60-minute incubation at 37° C.; pH 7.4
Experimental: as §1, §2, §3, §4, §5, §6, §7, §8, §9

| Structure (SMILES) | Permeability Papp (AB) |
| --- | --- |
| CCc1ccccc1-c1ccnc2cc(C(=O)NC[C@@H](N)C(=O)O)sc12 [Compound 1d, (R)-2-amino-3-(7-(2-ethylphenyl)thieno[3,2-b]pyridine-2-carboxamido)propanoic acid] | BLOQ |
| Cc1ccnc2cc(C(=O)NC[C@@H](N)C(=O)O)sc12 [Compound 1c, (R)-2-amino-3-(7-methylthieno[3,2-b]pyridine-2-carboxamido)propanoic acid] | BLOQ |
| COc1ccnc2cc(C(=O)NC[C@@H](N)C(=O)O)sc12 [Compound 1e, (R)-2-amino-3-(7-methoxythieno[3,2-b]pyridine-2-carboxamido)propanoic acid] | BLOQ |
| CC(C)Oc1ccnc2cc(C(=O)NC[C@@H](N)C(=O)O)sc12 [Compound 1g, (R)-2-amino-3-(7-isopropoxythieno[3,2-b]pyridine-2-carboxamido)propanoic acid] | BLOQ |
| N[C@H](CNC(=O)c1cc2nccc(C(F)F)c2s1)C(=O)O [Compound 1a, (R)-2-amino-3-(7-(difluoromethyl)thieno[3,2-b]pyridine-2-carboxamido)propanoic acid] | BLOQ |
| N[C@H](CNC(=O)c1cc2nccc(C3CC3)c2s1)C(=O)O [Compound 1b, (R)-2-amino-3-(7-cyclopropylthieno[3,2-b]pyridine-2-carboxamido) propanoic acid] | BLOQ |
